These results are taken from patent US20250375445A1, “METHODS OF TREATING A RAS PROTEIN-RELATED DISEASE OR DISORDER” (Revolution Medicines, Inc., priority 2024, published 2025).

For data set [1], the target named is T1, KRAS WT (Homo sapiens, UniProt P01116+P62937). Put plainly: KRAS Binding of CypA:TCI (KD2), KRAS WT.
In data set [2] the test system is human DUSP6 in NCI-H441 xenograft tumor. Put plainly: NCI-H441 xenograft single dose PKPD (exposure, human DUSP6). It counts as in vivo, mouse. The note with it: single oral dose, NCI-H441 xenograft tumor (FIG. 2). Here is the method: (§1) All mouse studies and procedures related to animal handling, care and treatment complied with all applicable regulations and guidelines of Institutional Animal Care and Use Committee (IACUC) approvals. Female BALB/c nude mice, 6-8 weeks old were used. Animal vendor was Shanghai Sino-British Sippr/BK Laboratory Animal Co., LTD. NCI-H441 tumor cells (ATCC-HTB-174) was maintained in vitro in RPMI-1640 medium supplemented with 10% heat inactivated FBS, 100 μg/mL streptomycin. Each mouse was inoculated subcutaneously at the right flank with 2×10^6 tumor cells in 0.2 ml media/matrigel for tumor development. Efficacy treatment started when the average tumor size reached 150-200 mm^3 in size, and the single dosed PKPD treatment started when tumor size reached 300-600 mm^3. Mice in the study were weighted and tumors were measured twice weekly.

Data set [3] deals with NCI-H441 KRAS^G12V NSCLC xenograft model. The data set is described as follows: NCI-H441 xenograft efficacy and tolerability. It counts as in vivo. As for the experimental part: as §1
NCI-H441 is a human lung tumor derived cell line. It harbors a KRAS^G12V mutation. It is typically grown in immune-deficient mice as a xenograft model. An NCI-H441 xenograft study was conducted in female BALB/C Nude mice. Each mouse was inoculated subcutaneously on the right flank with the single cell suspension of tumor cells (2×10^6) in 200 uL with BD Matrigel (1:1 ratio) for tumor development. Tumor width and length were measured with digital calipers, and the tumor volume in mm3 was calculated using the formula: Volume=((width)2×length)/2, where width and length are measured in mm.
Tumor growth inhibition (TGI, %) was calculated as percentage change in tumor volume for each group 100×(Vdayxc−Vdayx)/(Vdayxc−Vdayoc), where Vday0c is the starting mean tumor volume for the vehicle group, and Vdayx and Vdayxc are the corresponding tumor volumes for treatment group and control group on day x, calculated for the duration of the study. Mean tumor regression (where applicable, Vdayx<Vday0x) was calculated using the formula 100×(Vday0x−Vdayx)/Vday0x.
Differences in treatment arms as compared to vehicle controls were assessed by an ordinary one-way ANOVA of tumor volumes along with multiple comparisons via a post-hoc Tukey's test in GraphPad Prism software. Note, in some studies, additional test articles/groups (not reported here) were included and statistical analyses (ANOVA, post-hoc within group comparisons) were conducted on all treatment groups to allow for any interactions. The statistical significance values reported here represent the output of such analyses for RMC-6236 treatment arm.

A further data set deals with NRAS WT (Homo sapiens, UniProt P01111+P62937). The data set is described as follows: RAS-RAF Disruption, NRAS WT. It counts as biochemical.
Data set [4] relates to KRAS MUT (G12C, G12D, G12V). Put plainly: 2D Cell Viability, 120 hr, KRAS MUT. It is filed as cell-based.
For data set [5], the system named is RAS WT. Put plainly: Cellular pERK (2D, 4 hr), RAS WT. It is filed as cell-based.
The subject of data set [6] is NRAS MUT (Q61H, Q61K, Q61L, Q61R). The data set is described as follows: RAS-RAF Disruption, NRAS MUT. It is filed as biochemical.
A further data set has as its target CypA (Homo sapiens, UniProt P62937). Put plainly: CypA Binding (KD1). The source says:
The KD1 value of a RAS(ON) multi-selective inhibitor can be determined using methods standard in the art, including but not limited to surface plasmon resonance (SPR), Fluorescence Polarization (FP), or isothermal titration calorimetry (ITC). In a non-limiting example, the binding affinity of compounds for CypA can be assessed by SPR using, for example, a Biacore 8K instrument. CypA is immobilized on a sensor chip (e.g., a streptavidin chip), and varying RAS(ON) multi-selective inhibitor compound concentrations can be flowed over the chip in assay buffer. […] In a specific embodiment, the KD1 of a RAS(ON) multi-selective inhibitor is determined using SPR.
The binding affinity of RAS(ON) multi-selective inhibitor compounds for CypA can also be assessed by FP competition with fluorescein tagged cyclosporine A by varying RAS(ON) multi-selective inhibitor compound concentrations. The signals can be fitted using a concentration response curve and the KD1 is calculated.
In some embodiments, the KD1 value of a RAS(ON) multi-selective inhibitor for CypA can be determined using ITC, a label-free biophysical technique that directly measures the heat released or absorbed during molecular interactions. […] As the inhibitor binds to CypA, the heat of binding is measured after each injection. […]

Data set [7] relates to KRAS MUT (G12C, G12D, G12V). The data set is described as follows: RAS-RAF Disruption, KRAS MUT. It is filed as biochemical.
Data set [8] concerns KRAS MUT (G12C, G12D, G12V). The data set is described as follows: Cellular pERK (2D, 4 hr), KRAS MUT. It is filed as cell-based.
The target in data set [9] is T1, KRAS WT. The data set is described as follows: RAS-RAF Disruption, KRAS WT. It is filed as biochemical.
Data set [10] is described as follows: Oral bioavailability (multiple species). The conditions noted are these: in vivo, read-out: Oral % F (multiple species).
For a further data set, the system named is BRAF (V600E). Put plainly: 2D Cell Viability, 120 hr, BRAF (V600E). It is filed as cell-based.
Data set [11] relates to RAS WT. The data set is described as follows: 3D Cell Viability, 120 hr, RAS WT. It counts as cell-based.
A further data set concerns RAS mutant NSCLC or PDAC. Put plainly: Phase I study of RMC-6236 (NCT05379985). It counts as in vivo, human.
Data set [12] is described as follows: Half-life after oral administration to patients. The note with it: human, in vivo.
The test system of data set [13] is Capan-2, KRAS^G12V PDAC CDX model. The data set is described as follows: Capan-2 xenograft efficacy and tolerability. It counts as in vivo, mouse. As for the experimental part:
Capan-2 is a human pancreatic adenocarcinoma derived cell line. It harbors a KRAS^G12V mutation. It is typically grown in immune-deficient mice as a xenograft model. A Capan-2 xenograft study was conducted in female BALB/C Nude mice. Each mouse was inoculated subcutaneously on the right flank with the single cell suspension of tumor cells (4×10^6) in 100 uL RPMI 1640/Matrigel mixture (1:1 ratio) for tumor development. Tumor width and length were measured with digital calipers, and the tumor volume in mm3 was calculated using the formula: Volume=((width)2×length)/2, where width and length are measured in mm. Tumor growth inhibition (TGI, %) was calculated as percentage change in tumor volume for each group 100×(Vdayxc−Vdayx)/(Vdayxc−Vday0c), where Vday0c is the starting mean tumor volume for the vehicle group, and Vdayx and Vdayxc are the corresponding tumor volumes for treatment group and control group on day x, calculated for the duration of the study. Mean tumor regression (where applicable, Vdayx<Vday0x) was calculated using the formula 100×(Vday0x−Vdayx)/Vday0x.

A short description of data set [14]: Tolerability by dosing schedule in preclinical models.
The target of a further data set is KRAS MUT (G12D, G12V). Put plainly: KRAS Binding of CypA:TCI (KD2), KRAS MUT.
[15] abbreviates: 25 mg/kg daily, 50 mg/kg daily, 50 mg/kg Q2D and 100 mg/kg Q2D (FIG. 3).
Setting [16] is: patients with RAS mutant NSCLC or PDAC.

The term Kd denotes the constant that tells how readily two partners part at equilibrium. A high value points to lower affinity. As usually defined, the IC50 is the midpoint of a concentration-inhibition curve. A higher IC50 goes with weaker potency in that assay. As a reminder, the half-life is the time in which the quantity being followed falls by half. High values mean slow decline, low ones rapid decline.

T1 sequence (P01116 1-188 isoform P01116-2): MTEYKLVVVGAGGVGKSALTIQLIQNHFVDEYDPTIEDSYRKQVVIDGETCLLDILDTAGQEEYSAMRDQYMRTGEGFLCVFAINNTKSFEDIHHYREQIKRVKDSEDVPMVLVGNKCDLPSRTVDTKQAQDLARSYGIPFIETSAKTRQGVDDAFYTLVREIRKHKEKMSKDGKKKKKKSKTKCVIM
T1 sequence (P62937 whole entry): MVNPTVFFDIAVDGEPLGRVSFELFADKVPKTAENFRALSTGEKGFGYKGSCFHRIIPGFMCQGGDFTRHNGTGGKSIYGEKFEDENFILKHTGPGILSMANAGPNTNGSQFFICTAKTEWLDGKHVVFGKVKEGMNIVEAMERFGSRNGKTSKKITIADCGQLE
Sequence of NRAS WT (P01111 whole entry): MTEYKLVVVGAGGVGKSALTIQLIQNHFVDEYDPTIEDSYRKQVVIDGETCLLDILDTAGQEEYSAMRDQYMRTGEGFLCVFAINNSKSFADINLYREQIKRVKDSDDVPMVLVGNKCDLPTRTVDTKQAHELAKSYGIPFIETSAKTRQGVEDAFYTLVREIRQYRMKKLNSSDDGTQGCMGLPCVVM
Sequence of NRAS WT (P62937 whole entry): as the sequence (P62937 whole entry) above
Sequence of CypA (P62937 whole entry): as above

As for `CCn1c(-c2cc(N3CCN(C)CC3)cnc2[C@H](C)OC)c2c3cc(ccc31)-c1csc(n1)C[C@H](NC(=O)[C@H](C(C)C)N(C)C(=O)N(C)C)C(=O)N1CCC[C@H](N1)C(=O)OCC(C)(C)C2` (atropisomer, axis not shown) [Compound A], the Kd at KRAS WT [1] came out at 81 nM; at CypA, 12 nM. The “time of maximum DUSP6 suppression post single dose” value (“time” below) in data set [2] was found to be 24 h. Also, the “tolerability (dosing holidays)” value in data set [3] (setting [15]) was “all treatment groups require some dosing holidays towards the end”. The tumor regression result in data set [3] (setting [15]) was “the same tumor regression”. Moreover, the IC50 is 33 nM at NRAS WT; 0.2 to 1.2 nM in [4]; 0.4 nM with RAS WT [5]; 18 to 109 nM in data set [6]; 23 to 165 nM in data set [7]; 0.3 to 1 nM in [8]. Moreover, the values for the IC50 on KRAS WT [9], in the data set with BRAF (V600E) and in the data set with RAS WT [11] were 42 nM, 1880 nM and 0.4 nM, respectively. Moreover, the bioavailability in data set [10] was in the range of 20 to 38%.
`CCn1c(-c2cc(N3CCN(C)CC3)cnc2[C@H](C)OC)c2c3cc(ccc31)-c1csc(n1)C[C@H](NC(=O)[C@H]1C[C@@H]1C)C(=O)N1CCC[C@H](N1)C(=O)OCC(C)(C)C2` (atropisomer, axis not shown) [RMC-6236, daraxonrasib]: the “time” value in data set [2] was 8 h. Also, the “most common treatment-related adverse events (TRAEs)” value in the data set on RAS mutant NSCLC or PDAC was “rash and GI-related toxicities”. In the data set with RAS mutant NSCLC or PDAC (setting [16]), the antitumor activity entry is “encouraging antitumor activity”. Also, the safety profile entry with RAS mutant NSCLC or PDAC (setting [16]) is given as “acceptable safety profile”. Moreover, in data set [3] (25 mg/kg (Q2D) (FIG. 1)), the “decrease in tumor volume” value is listed as “lower decreases in tumor volume”. The tumor regression in data set [3] (25 mg/kg QD, NCI-H441 model (FIG. 6)) is listed as 88%; in [3] (100 mg/kg Q2D, NCI-H441 model (FIG. 6)), 89%; in [3] (100 mpk with increased interval of dosing, NCI-H441 model (FIG. 6)), 68%; in data set [13] (25 mg/kg QD, Capan-2 (FIG. 7)), 53%; in [13] (35 mg/kg 5on2off, Capan-2 (FIG. 7)) it was 28%; in [13] (40 mg/kg 4on3off, Capan-2 (FIG. 7)) it was 27%. The tumor regression in [13] (50 mg/kg Q2D, Capan-2 (FIG. 7)) was 51%. Further, the “tolerability, body weight” value is reported as “without any significant body weight loss” in [3] (all doses and regimens of FIG. 6); “without any significant body weight loss” in data set [13] (all tested doses and regimens, Capan-2 (FIG. 7)). Moreover, the tolerability result in [3] (all regimens of FIG. 4 and FIG. 5) is “tolerated in vivo”. Further, the IC50 was 1 to 3.1 nM in data set [4]; 1.5 nM with RAS WT [5]; 57 to 204 nM in [6]; 35 to 229 nM in data set [7]; 0.4 to 3.6 nM in [8]; 7210 nM with BRAF (V600E). This compound also returned an IC50 in the data set with RAS WT [11] of 1.4 nM. The half-life in data set [12] is about 10 h. In data set [10], the bioavailability was in the range of 24 to 33%. In addition, the tumor growth inhibition result in [13] (all tested doses and regimens, oral administration (FIG. 7)) was “Tumor growth inhibition was observed”. Also, the “body weight loss and tolerability” value in [14] (BID dosing) was “more severe body weight loss and intolerability”. Also, the tolerated dose level result in data set [14] (Q2D dosing) was “allows higher dose levels to be tolerated”. In addition, the body weight loss entry in data set [14] (Q2D dosing at an equivalent dose of QD dosing) is given as “slightly improves the body weight loss”. Further, on KRAS MUT (G12D, G12V), the dissociation constant Kd was in the range of 131 to 364 nM.
Take `CCn1c(-c2cc(N3CCN(C4CC4)CC3)cnc2[C@H](C)OC)c2c3cc(ccc31)-c1csc(n1)C[C@H](CC(=O)[C@H]1[C@@H]3COC[C@@H]31)C(=O)N1CCC[C@H](N1)C(=O)OCC(C)(C)C2` (atropisomer, axis not shown) [RMC-7977]: the Kd at KRAS WT [1] is 116 nM; on CypA, 216 nM; on KRAS MUT (G12D, G12V) it was 111 to 435 nM. For the same compound, the “time” value in data set [2] amounted to 8 h. Further, the concentration for half-maximal inhibition (IC50) against NRAS WT is 57 nM; in data set [4], 0.8 to 4.9 nM; in the data set on RAS WT [5], 1.7 nM; in data set [6] it was 48 to 144 nM; in data set [7] it was 31 to 175 nM; in data set [8] it was 0.5 to 4.1 nM. The values for the IC50 against KRAS WT [9], with BRAF (V600E) and in the data set on RAS WT [11] were 76 nM, 8360 nM and 1.9 nM, respectively. Moreover, the bioavailability in [10] was 60%.
